Experimental data taken from US4866176A, “8-Piperazinyl-1,7-naphthyridine derivative having pharmaceutical activity” (SS Pharmaceutical Co., Ltd., priority 1986, dated 1989).

Columns and labels:
heart rate = assay: Antiarrhythmic effect (chloroform, mice, ip); format: in vivo; details: positive = 1-200 per minute heart rate
Experimental: Mice, age 5 weeks and weighing approximately 25 g, 6 of which consisted one group, were given a test compound which was dissolved in a 0.01 N-0.1 N hydrochloric acid solution (ip). Ten (10) minutes thereafter the mice were put into a sealed container which was filled with chloroform, their chests were incised promptly after confirming the respiratory arrest, and the heart rate was counted. Those with a 1-200 per minute heart rate were judged as positive in their antiarrhythmic effect.

Edema = assay: Antiinflammatory effect (carragenin-induced edema of rat foot, oral); format: in vivo, Wister rats; details: 30 mg/kg, carragenin 60 min after dosing, foot volume 3 hours thereafter
Experimental: Wister rats (age 6 weeks), 5 of which consisted one group, were fasted for 18 hours and orally given a test compound which was dissolved or suspended in a 0.5% sodium carboxymethylcellulose (CMC-Na). Sixty (60) minutes after administration of the tested compound each rat was subcutaneously given 0.1 ml of 1% carragenin physiological saline at its right plantar, and 3 hours thereafter the volume of its foot (A) was measured. The rate of edematization was determined by the formula [(A-B)/B]×100, in which (A) is the thus-obtained volume of animals foot and (B) denots the corresponding volume before administration of the compound (B).
The rate of edematization of controls which were subcutaneously given 0.1 ml of 1% carragenin physiological saline at their right plantars was also determined in the same manner. The rate of edema inhibition was determined on each of the tested compounds according to the following equation: [formula]
The results are shown in Table 1, in which the compound numbers correspond those of Examples appearing hereinafter in this specification.

[1] = tested on: right and left atrium muscles; assay: Cardiotonic effect (positive inotropic effect on isolated guinea pig atrium muscles); set-up: species or system Hartley male guinea pigs; details: Cavia porcellus, 10^-5 g/ml, 32° C, maximum change of contractive force, read-out: Positive Inotropic Effect (% per the value obtained on controls)
Experimental: Hearts of Hartley male guinea pigs, weighing 500-800 g, were taken out and their atrium muscles were enucleated in Krebs - hydrogencarbonate solution, to serve the same as samples for the test. The both ends of right and left atrium muscles with a spontaneous beat were fixed by means of Serres fines, and suspended, with their upper and lower portions being fixed, in a bath containing 20 ml of Krebs - hydrogencarbonate solution which was aerated by 95% O2 +5% CO2 at 32° C. Then contractive forces of the spontaneous beat were isometrically measured. After the samples were stabilized, the test compound dissolved in 1 N hydrochloric acid solution and diluted by physiological saline to a concentration of 10^-5 g/ml was charged into the bath. Maximum changes (%) of the contractive force after charging the test compound per the value obtained immediately before the charge were determined. The values obtained, which respresent a positive inotropic effect, were made a standard for the cardiotonic effect.

Row | SMILES | Animals exhibited positive antiarrhythmic/Animals tested (heart rate; 12.5 mg/kg) | Animals exhibited positive antiarrhythmic/Animals tested (heart rate; 25.0 mg/kg) | Edema Inhibition Rate (%) (Edema) | activation at 10 µg/mL [1] [%]
1 | CC(=O)Nc1cc2cccnc2c(N2CCNCC2)n1 [Compound No. 1, 6-acetamido-8-(1-piperazinyl)-1,7-naphthyridine] | 5/6 | 4/6 | 64.8 | 
2 | CC(=O)Nc1cc2cccnc2c(N2CCN(C=O)CC2)n1 [compound 2] |  |  | 35.0 | 35.8
3 | CC(=O)Nc1cc2cccnc2c(N2CCN(C(C)=O)CC2)n1 [compound 3] |  |  |  | 35.6
4 | CC(=O)Nc1cc2cccnc2c(N2CCN(C(=O)c3ccccc3)CC2)n1 [compound 4] | 2/6 | 4/6 |  | 
5 | CC(=O)Nc1cc2cccnc2c(N2CCN(C(=O)c3ccc([N+](=O)[O-])cc3)CC2)n1 [compound 8, 6-acetamido-8-[4-(p-nitrobenzoyl)-1-piperazinyl]-1,7-naphthyridine] |  |  | 28.6 | 
6 | COc1ccc(C(=O)N2CCN(c3nc(NC(C)=O)cc4cccnc34)CC2)cc1 [compound 9] |  |  | 30.4 | 
7 | COc1ccc(C(=O)N2CCN(c3nc(NC(C)=O)cc4cccnc34)CC2)cc1OC [compound 10] |  |  |  | 16.7
8 | COc1cc(C(=O)N2CCN(c3nc(NC(C)=O)cc4cccnc34)CC2)cc(OC)c1OC [compound 11] | 1/6 | 6/6 |  | 
9 | CC(=O)Nc1cc2cccnc2c(N2CCN(c3cccc(Cl)c3)CC2)n1 [compound 15] | 4/6 | 4/6 |  | 
10 | CC(=O)Nc1cc2cccnc2c(N2CCN(c3ccc(F)cc3)CC2)n1 [compound 17] | 3/6 | 5/6 |  | 
11 | CC(=O)Nc1cc2cccnc2c(N2CCN(Cc3ccccc3)CC2)n1 [compound 22] |  |  | 57.1 | 16.7
